The source of these data is PubChem BioAssay (NCI).

Holding throughout (assay): DTP human tumour cell line panel, 48 h
Test [1] deals with MOLT-4 leukemia.
The subject of test [2] is 786-0 renal.
Test [3] concerns SK-OV-3 ovarian.
In test [4] the test system is DU-145 prostate.
Test [5] relates to LOX IMVI melanoma.
Test [6] concerns MDA-MB-231 breast.
Test [7] concerns NCI-H23 lung.
Test [8] deals with CCRF-CEM leukemia.
In test [9] the test system is A498 renal.
Test [10] concerns SW-620 colon.
For test [11], the system named is PC-3 prostate.

“And” between values parts separate entries of the source, which are not always exact repeats. Identical values can stand only once.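 Values below derive from 48-hour exposures of cells grown in 96-well plates, with endpoints linearly interpolated between the two concentrations bracketing the appropriate inhibition level. GI50: concentration for 50% inhibition of growth. TGI is the concentration that stops growth completely.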 The source made the active and inactive calls. Rule as the data show it: active = GI50 below about 0.43 µM; inactive = the rest.

As for `CCCCn1c(-c2ccc([N+](=O)[O-])cc2)cs/c1=N/N=C1\C(=O)Nc2ccc(Br)cc21`, the TGI (in general, the concentration at which net growth stops) was 46.5 µM in test [1]; 29.8 µM in [2]; 48.8 µM in test [3]; 30 µM in test [4]; 39 µM in test [5]; 32.7 µM in test [6]. Also, the TGI in test [7] was 33.1 µM; in test [8] it was above 100 µM; in test [9] it was 34.3 µM; in [10] it was above 100 µM.
For the compound `CCOC(=O)c1nnsc1NN`, the TGI in test [1], in test [2], in [3], in [4], in [5] and in [6] was above 100 µM each time. Moreover, the TGI in test [7], in [11], in [8] and in test [10] was above 100 µM each time.
Turning to `CCCSc1nc(-c2ccc(OC)cc2)c(C#N)c(=O)n1C1OC(COC(C)=O)C(OC(C)=O)C(OC(C)=O)C1OC(C)=O` (configuration not stated), the total growth inhibition concentration (TGI) in test [1] was above 100 µM; in test [3] it was above 100 µM; in test [7], above 100 µM; in test [8] it was above 100 µM; in [9], > 100 µM and 78.2 µM. Besides, in [9], the GI50 (usually the concentration at which growth is held to half of that of the control) was 20.9 µM.
With `CCC(C(=O)C(=O)OC)P1(=O)OC(C)(C)CN1C(C)(C)C` (configuration not stated), the TGI in test [1], in test [2], in test [3], in [4], in [5] and in [6] was above 100 µM in each case. Further, the TGI is above 100 µM in [7], above 100 µM in test [11], 53.1 µM in test [9] and above 100 µM in test [10].
`COC(=O)[C@H](Cc1ccccc1)NC(=O)CCCCCCC(=O)NO`: the TGI in test [1] was above 100 µM; in [2], above 100 µM; in [3], 52.3 µM; in test [4], 38.5 µM; in test [5], 32.4 µM; in [6], 65.3 µM. In addition, the TGI was above 100 µM in test [7], 38.2 µM in [11], above 100 µM in test [8] and above 100 µM in test [10].
Take `Nc1nn2c(=O)c3ccccc3nc2s1`: the TGI in [1] was 53.1 µM; in [2], above 100 µM; in test [3], above 100 µM; in test [4] it was above 100 µM; in test [5], 44.7 µM; in [7], above 100 µM. The TGI in test [11] is above 100 µM; in test [8], 46.9 µM; in test [9], above 100 µM; in [10] it was 38.5 µM.
Take `COc1cc2c(c(O)c1OC)C(=O)C(Cc1ccc(O)cc1)CO2` (configuration not stated): the TGI in test [1] was above 100 µM; in test [2], above 100 µM; in [3], 61.3 µM; in [4] it was above 100 µM; in test [5] it was above 100 µM; in test [6], 77.4 µM. Also, the TGI in test [7], in test [11], in [8] and in test [10] was above 100 µM in each case.
Regarding `c1c2c(cc(-n3nnc4c3CCCCCC4)c1-n1nnc3c1CCCCCC3)CCCCCC2`, the TGI in test [1] came out at 11 µM; in [3] it was 34.5 µM; in test [5], 26.6 µM; in [8], 27.3 µM; in test [9], 22.2 µM; in [10], 27.4 µM. Besides, the outcome in test [2] was inactive.
With `COc1nc(C#CC(C)(C)C)nc(OC)n1`, the TGI is above 100 µM in test [1]; above 100 µM in test [2]; above 100 µM in test [3]; 68.3 µM in test [4]; 61.4 µM in test [5]; 59.8 µM in [6]. Moreover, the TGI in [7] was 68.5 µM; in [11] it was above 100 µM; in test [9], above 100 µM; in test [10], 73.3 µM.
Consider `CN(C)CC1CCC(CN(C)C)C1=O` (configuration not stated), for which the TGI in test [1] was determined as 4.03 µM; in test [2] it was 4.11 µM; in [3], 30.6 µM; in test [5], 14.4 µM; in test [6] it was 4.18 µM; in test [7], 12.9 µM. The TGI in test [11] was 4.58 µM; in test [8] it was above 100 µM; in test [9], above 58.9 µM; in test [10], 10.4 µM. Besides, the GI50 in test [8] was 0.319 µM.
In the case of `COc1cc(NC(C)=O)ccc1C(=O)NN1C(=O)/C(=C/c2ccco2)N=C1c1ccccc1`, the concentration for total growth inhibition (TGI) in [1] was 45.6 µM; in test [2], above 50 µM; in [3] it was above 50 µM; in test [4], above 50 µM; in test [5], above 50 µM; in test [7] it was above 50 µM. Besides, the TGI in test [11] is above 50 µM; in test [8] it was 31.1 µM; in test [9] it was above 50 µM; in test [10], above 50 µM.
Consider `COc1cc2c(cc1OC)-c1cc3ccccc3c(=O)n1CC2`, for which the TGI is 97 µM in [1]; 74.5 µM in test [3]; above 100 µM in [4]; 27.5 µM in [5]; 43.8 µM in [6]; above 100 µM in test [7]. Further, the TGI in [11] was 40.6 µM; in test [8] it was above 100 µM; in test [10], above 100 µM.
For `O=c1[nH]c(=O)n(C2CC(O)C(CO)O2)cc1OCc1ccccc1` (configuration not stated), the total growth inhibition concentration (TGI) in test [1], in test [2], in test [3], in test [4], in [5] and in [6] was above 100 µM throughout. Further, the TGI in [7], in test [11] and in test [8] was above 100 µM in each case.
For the compound `O=c1cc(N2CCCC2)[nH]c(=O)n1-c1ccccc1`, the TGI in test [1], in [2], in test [4], in [5], in [6] and in test [7] was above 100 µM in each case. In addition, the TGI in test [11], in test [8] and in test [10] was above 100 µM in each case.
Consider `CCOP(=O)(/C=C\n1ccc(N)nc1=O)OCC`, for which the TGI in [1], in test [2], in [3], in [4], in test [5] and in [6] was above 100 µM throughout. The TGI in test [7], in test [11], in [8] and in test [10] was above 100 µM throughout.
For `CC12CCCC3(CC(=O)C(C)(C)C3C(=O)C1)C2` (configuration not stated), the TGI in [1], in [2], in test [3], in test [4], in test [5] and in test [7] was above 100 µM in each case. In addition, the TGI in [11], in [8] and in test [10] was above 100 µM each time.
Regarding `CCOC(=O)/C(O)=C1\C(=O)N(C)C(=O)C1c1cccc(OC)c1` (configuration not stated), the TGI in test [1], in [3], in [5], in test [7], in test [8] and in test [9] was above 100 µM throughout. Moreover, the TGI in test [10] is above 100 µM.
As to `O=C(N/N=C/c1ccc(Br)cc1)N/N=C/c1ccc(Br)cc1`, the TGI in test [1] was 30.2 µM; in test [2] it was 13.4 µM; in [3], 7.96 µM; in test [4], above 100 µM; in test [5] it was above 100 µM; in [6], 16.2 µM. In addition, the TGI in [7] is above 100 µM; in test [11], above 100 µM; in test [8], 31 µM; in test [10] it was 30.7 µM.
As to `O=c1[nH]c(Nc2cccc(CO)c2)nc2nc[nH]c12`, the TGI in [1], in [2], in test [3], in [4], in test [5] and in test [6] was above 100 µM each time. The TGI in test [7], in test [11], in test [8] and in test [10] was above 100 µM each time.
As for `CC1(C)[C@H]2CC[C@@]13C(=O)N1C(=O)O[C@@H]([C@H]1Cl)C(Cl)(COCc1ccccc1)C(=O)OCCO[C@H]3C2` (some centres not stated), the total growth inhibition concentration (TGI) in test [1] is 76.9 µM; in test [2] it was above 100 µM; in test [3], above 100 µM; in test [5], above 100 µM; in [7], above 100 µM; in test [11] it was above 100 µM. Further, the TGI in [8], in test [9] and in [10] was above 100 µM throughout.
Take `CC(=O)OC1C(COC(=O)c2ccccc2)OC(Nc2ncc(-c3ccc(Br)cc3)s2)C(OC(=O)c2ccccc2)C1OC(=O)c1ccccc1` (configuration not stated): the TGI in test [1], in test [2], in [3], in [4], in test [5] and in test [6] was above 100 µM each time. Further, the TGI in test [7], in test [11] and in [10] was above 100 µM in each case.
In the case of `CCCCCCCCCc1nn2c(Cc3ccccc3)nnc2s1`, the TGI in test [1] worked out at 59.3 µM; in test [2], 34.7 µM; in test [3] it was 66.7 µM; in [4] it was 51.4 µM; in test [6], 54.5 µM; in test [7] it was 38.8 µM. Also, the TGI in test [11] was 51 µM; in [9], 34.2 µM; in test [10] it was 33.5 µM.
Take `Cc1c2c(OCC3CCCCO3)nn(C)c(=O)c2c(C)n1-c1ccccc1` (configuration not stated): the TGI in test [1] is above 100 µM; in test [2], 33.9 µM; in [3], 34.8 µM; in test [4] it was 36.9 µM; in [5], 33.7 µM; in test [6] it was 32.2 µM. For the same compound, the values for the TGI in [7], in [11] and in test [9] were 44.2 µM, 36 µM and 28.3 µM, respectively.
Take `O=C(c1ccncc1)C1C(=O)c2ccccc2C1C1(O)c2ccccc2CC1C(O)c1ccncc1` (configuration not stated): the TGI in [1] is 69.7 µM; in test [2], above 100 µM; in test [3], above 100 µM; in test [5], above 100 µM; in test [6], above 100 µM; in test [7], above 100 µM. Also, the TGI in test [9] and in test [10] was above 100 µM each time.
As for `COc1ccc(C2c3cc4c(cc3OC(N3CCOCC3)C2C)OCO4)c(OC)c1OC` (configuration not stated), the TGI was 34 µM in test [1]; 43.2 µM in test [2]; 33.9 µM in test [5]; above 100 µM in test [7]; 88.7 µM in [11]; 55.4 µM in [8]. In test [10], the TGI is above 100 µM.
`CN(C)CCC(=O)/C=C\c1ccccc1`: the concentration for total growth inhibition (TGI) in test [1] was 33.1 µM; in [2] it was 29.8 µM; in test [5], 29.6 µM; in [8], 25 µM; in test [9] it was 39.5 µM; in test [10] it was 35.8 µM.
Take `Cc1ccc(/C=C2\Cc3c(C)cc(C)cc3C2=O)c(C(=O)O)c1`: the TGI was above 100 µM in [1]; above 100 µM in test [2]; above 100 µM in test [4]; 48.9 µM in test [5]; above 100 µM in test [7]; above 100 µM in test [11]. Moreover, the results for the TGI in [8], in test [9] and in test [10] were above 100 µM, 84.1 µM and above 100 µM, respectively.
`C1=C\SS/C=C\SS/1`: the TGI is 78.7 µM in [1]; 35.8 µM in test [2]; above 100 µM in [3]; above 100 µM in test [4]; above 100 µM in [5]; above 100 µM in test [7]. Moreover, the TGI in test [11] was above 100 µM; in test [8], 7.09 µM; in test [9], above 100 µM; in test [10], above 100 µM.
As to `COC(=O)C1=Nc2c(C)nn(-c3ccccc3)c2N=C(c2ccccc2)C1`, the TGI in test [1], in test [2], in [3], in test [4], in [5] and in test [6] was above 10 µM in each case. For the same compound, the TGI in test [7], in test [11] and in test [10] was above 10 µM throughout.
